From US11613538B2, “Method of inhibiting or reducing a viral infection” (PTC Therapeutics, Inc., priority 2009, dated 2023)
pEC50: −log10 of the molar value.

Tested on: hypoxia-induced VEGF production in HeLa cells
Experiment: cells
Assay type: cell-based, human
Conditions: Homo sapiens, HeLa

Compound | pEC50
COc1cc(C2c3[nH]c4ccc(Cl)cc4c3CCN2C(=O)Oc2ccc(Cl)cc2)ccc1OCCN1CCOCC1 (stereo not shown) [Compound 1092] | 7.40 to 8.10
CC#CCOC(=O)N1CCc2c([nH]c3cc(Br)ccc23)C1c1ccc(OC(F)F)cc1 (stereo not shown) [Compound 1445] | 6.70 to 7.40
COc1ccc(OC(=O)N2CCc3c([nH]c4ccc(Cl)cc34)C2c2ccc(OCCCn3nccn3)c(OC)c2)cc1 (stereo not shown) [Compound 1146] | 7.40 to 8.10
CCOC(=O)N1CCc2c([nH]c3ccc(Cl)cc23)[C@@H]1c1ccc(Oc2ncc(CN3CCN(C)CC3)s2)cc1 [Compound 1657] | > 8.10
COc1ccc(C2c3[nH]c4ccc(Cl)cc4c3CCN2C(=O)Oc2ccc(Cl)cc2)cc1OCCCCN1CCOCC1 (stereo not shown) [Compound 1097] | 6.70 to 7.40
COc1ccc(C2c3[nH]c4ccc(Cl)cc4c3CCN2C(=O)C(=O)Nc2ccc(C)cc2)cc1 (stereo not shown) [Compound 1712] | 7.40 to 8.10
CCC(CO)(CO)COc1ccc(C2c3[nH]c4ccc(Br)cc4c3CCN2C(=O)OCC(C)C)cc1 (stereo not shown) [Compound 1356] | > 8.10
O=C(C1CC1)N1CCc2c([nH]c3ccc(Cl)cc23)C1c1ccc(OCCCN2CCOCC2)cc1 (stereo not shown) [Compound 1141] | 6.70 to 7.40
CC#CCOC(=O)N1CCc2c([nH]c3cc(Cl)ccc23)C1c1ccc(OC)cc1 (stereo not shown) [Compound 1443] | 6.00 to 6.70
CC#CCOC(=O)N1CCc2c([nH]c3ccc(Cl)cc23)C1c1ccc(OCC[C@H](O)CO)cc1 (stereo partly shown) [Compound 1176] | > 8.10
CCOC(=O)N1CCc2c([nH]c3ccc(Cl)cc23)[C@@H]1c1ccc(Oc2ccc3ccccc3n2)cc1 [Compound 1575] | > 8.10
CS(=O)(=O)CCCOc1ccc([C@H]2c3[nH]c4ccc(Cl)cc4c3CCN2C(=O)Oc2ccc(Cl)cc2)cc1 [Compound 1648] | > 8.10
O=C(OC1CCCC1)N1CCc2c([nH]c3ccc(Cl)cc23)[C@@H]1c1ccc(O)cc1 [Compound 1286] | 6.70 to 7.40
CCOC(=O)N1CCc2c([nH]c3ccc(Cl)cc23)[C@@H]1c1ccc(OCCC(O)CNC(=O)OC)cc1 (stereo partly shown) [Compound 1619] | > 8.10
COc1ccc(C2c3[nH]c4ccc(Cl)cc4c3CCN2C(=O)OCCn2nccn2)cc1 (stereo not shown) [Compound 1156] | 7.40 to 8.10
O=C(OCc1ccccc1Cl)N1CCc2c([nH]c3ccc(Cl)cc23)C1c1ccc(OCC2OCCO2)cc1 (stereo not shown) [Compound 1057] | > 8.10
COc1ccc(OC(=O)N2CCc3c([nH]c4cc(F)ccc34)C2c2ccc(OC)cc2)cc1 (stereo not shown) [Compound 1460] | < 6.00
CC#CCOC(=O)N1CCc2c([nH]c3ccc(Cl)cc23)[C@@H]1c1ccc(OC2CCN(CC[C@H](O)CO)CC2)cc1 [Compound 1705] | 6.70 to 7.40
C=CCOc1ccc([C@H]2c3[nH]c4ccc(Cl)cc4c3CCN2C(=O)OC2CCCC2)cc1 [Compound 1262] | > 8.10
CCN(CC)C[C@@H](O)COc1ccc([C@H]2c3[nH]c4ccc(Cl)cc4c3CCN2c2ncccn2)cc1 [Compound 1311] | 6.70 to 7.40
Cc1ccc(OC(=O)N2CCc3c([nH]c4ccc(Cl)cc34)[C@@H]2c2ccc(OCCC(O)CN(CCO)CCO)cc2)cc1 (stereo partly shown) [Compound 1288] | 7.40 to 8.10
O=C(OCC1CCCC1)N1CCc2c([nH]c3ccc(Cl)cc23)[C@@H]1c1ccc(OC[C@H](O)CO)cc1 [Compound 1685] | > 8.10
CCOC(=O)N1CCc2c([nH]c3ccc(Cl)cc23)[C@@H]1c1ccc(OCCC(O)CNS(=O)(=O)CC)cc1 (stereo partly shown) [Compound 1623] | > 8.10
COc1ccc(C2c3[nH]c4ccc(S(C)(=O)=O)cc4c3CCN2C(=O)OC(C)(C)C)cc1 (stereo not shown) [Compound 1502] | < 6.00

Compound | pEC50
CCOC(=O)N1CCc2c([nH]c3ccc(Cl)cc23)[C@@H]1c1ccc(OC[C@@H]2COC(C)(C)O2)cc1 [Compound 1261] | > 8.10
COc1ccc(C2c3[nH]c4ccc(S(C)(=O)=O)cc4c3CCN2C(=S)Oc2ccc(C)cc2)cc1 (stereo not shown) [Compound 1503] | < 6.00
O=C(OCC1CCCC1)N1CCc2c([nH]c3ccc(Cl)cc23)[C@@H]1c1ccc(OCCCO)cc1 [Compound 1630] | > 8.10
CC1(C)C(=O)NC(=O)N1CCCOc1ccc(C2c3[nH]c4ccc(Cl)cc4c3CCN2C(=O)Oc2ccc(Cl)cc2)cc1 (stereo not shown) [Compound 1671] | > 8.10
O=C(Oc1ccc(Cl)cc1)N1CCc2c([nH]c3ccc(Cl)cc23)[C@@H]1c1ccc(OCCCNCCO)cc1 [Compound 1257] | 7.40 to 8.10
O=C(c1ccccc1)N1CCc2c([nH]c3ccc(Cl)cc23)C1c1ccc(OCCCn2cncn2)cc1 (stereo not shown) [Compound 1139] | 7.40 to 8.10
COc1ccc(C2c3[nH]c4c(C)cccc4c3CCN2C(=O)Oc2ccc(C)cc2)cc1 (stereo not shown) [Compound 1426] | < 6.00
O=C(Oc1ccc(Cl)cc1)N1CCc2c([nH]c3ccc(Cl)cc23)[C@@H]1c1ccc(Oc2ncc(CN3CCOCC3)s2)cc1 [Compound 1660] | > 8.10
NC(=O)COc1ccc(C2c3[nH]c4ccc(Cl)cc4c3CCN2C(=O)Oc2ccc(F)cc2)cc1 (stereo not shown) [Compound 1215] | 7.40 to 8.10
O=C(Oc1ccc(Cl)cc1)N1CCc2c([nH]c3cc(F)ccc23)C1c1ccc(F)cc1 (stereo not shown) [Compound 1459] | < 6.00
COc1ccc(C2c3[nH]c4ccc(Cl)cc4c3CCN2C(=O)C(=O)OC(C)C)cc1 (stereo not shown) [Compound 1338] | 7.40 to 8.10
CCOC(=O)N1CCc2c([nH]c3ccc(Cl)cc23)C1c1ccc(OCC(=O)N2CCN(CCO)CC2)cc1 (stereo not shown) [Compound 1014] | 6.70 to 7.40
CC(=O)N1CCN(CCCOc2cccc(C3c4[nH]c5ccc(Cl)cc5c4CCN3C(=O)Oc3ccc(F)cc3)c2)CC1 (stereo not shown) [Compound 1364] | 6.70 to 7.40
O=C(Oc1ccc(Cl)cc1)N1CCc2c([nH]c3ccc(Cl)cc23)C1c1ccc(OCC[C@H](O)CO)cc1 (stereo partly shown) [Compound 1172] | > 8.10
COc1ccc(C(=O)N2CCc3c([nH]c4ccc(Cl)cc34)C2c2ccc(OCCCn3cncn3)cc2)cc1 (stereo not shown) [Compound 1191] | 6.70 to 7.40
[H]/N=c1\scnn1CCOc1ccc(C2c3[nH]c4ccc(Cl)cc4c3CCN2C(=O)OCC(C)C)cc1 (stereo not shown) [Compound 1407] | > 8.10
O=C(OC1CCCC1)N1CCc2c([nH]c3ccc(Cl)cc23)[C@@H]1c1ccc(OCC[C@H](O)CO)cc1 [Compound 1320] | > 8.10
Clc1ccc2[nH]c3c(c2c1)CCN(c1ncccn1)C3c1ccc(OCCCn2ccnn2)cc1 (stereo not shown) [Compound 1200] | > 8.10
O=C(OCC1CCC1)N1CCc2c([nH]c3ccc(Cl)cc23)[C@@H]1c1ccc(O)cc1 [Compound 1370] | 7.40 to 8.10
CCCN(CCC)CCCOc1ccc([C@H]2c3[nH]c4ccc(Cl)cc4c3CCN2C(=O)Oc2ccc(Cl)cc2)cc1 [Compound 1234] | > 8.10
CCOC(=O)N1CCc2c([nH]c3ccc(Cl)cc23)[C@@H]1c1ccc(OCCC(O)CNC(=O)C(C)C)cc1 (stereo partly shown) [Compound 1616] | 7.40 to 8.10
[H]/N=C(\N)NCCOc1ccc(C2c3[nH]c4ccc(Cl)cc4c3CCN2C(=O)OCCOC)cc1 (stereo not shown) [Compound 1410] | < 6.00
COc1ccc(C2c3[nH]c4ccc(Cl)cc4c3CCN2C(=O)C(=O)OCC2CCC2)cc1 (stereo not shown) [Compound 1718] | 7.40 to 8.10
CCOC(=O)N1CCc2c([nH]c3ccc(Cl)cc23)[C@@H]1c1ccc(OCC2COC(C)(C)OC2)cc1 [Compound 1206] | > 8.10

Compound | pEC50
COc1ccc(OC(=O)N2CCc3c([nH]c4cc(Cl)ccc34)C2c2ccc(OC)cc2)cc1 (stereo not shown) [Compound 1455] | < 6.00
C=CCOc1ccc([C@H]2c3[nH]c4ccc(Cl)cc4c3CCN2P(=O)(OCC)OCC)cc1 [Compound 1608] | < 6.00
COc1ncc(C2c3[nH]c4ccc(Cl)cc4c3CCN2C(=O)Oc2ccc(F)cc2)cn1 (stereo not shown) [Compound 1690] | 7.40 to 8.10
O=C(Oc1ccc(Cl)cc1)N1CCc2c([nH]c3ccc(Cl)cc23)[C@@H]1c1ccc(OCCCNC(CO)(CO)CO)cc1 [Compound 1255] | 6.70 to 7.40
CCC(C)OC(=O)N1CCc2c([nH]c3ccc([S+](C)[O-])cc23)C1c1ccc(OC)cc1 (stereo not shown) [Compound 1493] | < 6.00
O=C(Oc1ccc(Cl)cc1)N1CCc2c([nH]c3ccc(Cl)cc23)[C@@H]1c1ccc(OCCCN(CCO)CCO)cc1 [Compound 1258] | > 8.10
C#CCOC(=O)N1CCc2c([nH]c3ccc(Cl)cc23)C1c1ccc(OCC2OCCO2)cc1 (stereo not shown) [Compound 1048] | > 8.10
CC#CCOC(=O)N1CCc2c([nH]c3ccc(Cl)cc23)[C@@H]1c1ccc(OC2CCN(c3ncccn3)CC2)cc1 [Compound 1678] | > 8.10
CCC(CO)(CO)COc1ccc([C@H]2c3[nH]c4ccc(Cl)cc4c3CCN2C(=O)OCC2CC2)cc1 [Compound 1383] | > 8.10
COCCN1CCN(C(=O)COc2ccc(C3c4[nH]c5ccc(Cl)cc5c4CCN3C(=O)Oc3ccc(OC)cc3)cc2)CC1 (stereo not shown) [Compound 1025] | 6.70 to 7.40
COc1ccc(C2c3[nH]c4ccc(Cl)cc4c3CCN2C(=O)C(=O)Nc2ccc(F)cc2)cc1 (stereo not shown) [Compound 1713] | 6.70 to 7.40
COc1ccc([C@H]2c3[nH]c4ccc(Cl)cc4c3CCN2C(=O)OCC2CC2)cc1 [Compound 1371] | 7.40 to 8.10
O=C(Oc1ccc(Cl)cc1)N1CCc2c([nH]c3ccc(Cl)cc23)[C@@H]1c1ccc(OCCC(O)CN(CCO)CCO)cc1 (stereo partly shown) [Compound 1280] | 7.40 to 8.10
COc1ccc(C2c3[nH]c4ccc([S+](C)[O-])cc4c3CCN2C(=O)Oc2ccc(Cl)cc2)cc1 (stereo not shown) [Compound 1489] | < 6.00
Clc1ccc2[nH]c3c(c2c1)CCNC3c1ccc(OC2CCOCC2)cc1 (stereo not shown) [Compound 1220] | 6.70 to 7.40
CCOC(=O)N1CCc2c([nH]c3ccc(Cl)cc23)[C@@H]1c1ccc(OCCC(O)CNS(C)(=O)=O)cc1 (stereo partly shown) [Compound 1622] | > 8.10
CC(CO)(CO)COc1ccc([C@H]2c3[nH]c4ccc(Cl)cc4c3CCN2C(=O)OCC2CCC2)cc1 [Compound 1376] | > 8.10
CCNC(=O)C(=O)N1CCc2c([nH]c3ccc(Cl)cc23)C1c1ccc(OC)cc1 (stereo not shown) [Compound 1706] | 6.70 to 7.40
O[C@H](COc1ccc([C@H]2c3[nH]c4ccc(Cl)cc4c3CCN2c2ncccn2)cc1)CN1CCCCC1 [Compound 1310] | 7.40 to 8.10
CC(C)(C)OC(=O)N1CCc2c([nH]c3ccc(Cl)cc23)[C@@H]1c1ccc(OCCCn2nccn2)cc1 [Compound 1240] | > 8.10
COc1ccc(C2c3[nH]c4cc(Cl)ccc4c3CCN2C(=O)Oc2ccc(Cl)cc2)cc1 (stereo not shown) [Compound 1444] | 6.70 to 7.40
COc1ccc(OC(=O)N2CCc3c([nH]c4cc(C(F)(F)F)ccc34)C2c2ccc(OC)cc2)cc1 (stereo not shown) [Compound 1425] | < 6.00
